According to US12714736B2, “Methods for preventing an immunoglobulin e-related disease” (MY-OR DIAGNOSTICS LTD., priority 2019, dated 2026):

Tested on: Staphylococcus epidermidis
Experiment: Anti/pro microbial study: Staphylococcus epidermidis cultured on a plate comprising acemannan
Assay type: cell-based
Details: culture plate, Acemannan 0.2% (w/w) vs control (double-distilled water), FIG. 1
Description: FIG. 1 includes a micrograph of culture plate of Staphylococcus epidermidis. The bacteria were cultured on the plate in presence of either Acemannan (0.2% (w/w)) or control (double-distilled water).
The inventors examined the activity of a composition comprising acemannan. The inventors performed an anti/pro microbial study, by culturing Staphylococcus epidermidis on a plate comprising acemannan. S. epidermidis is a skin resident who is known to play an important role in immune training and pathogen resistance. […] This supports the inventors' notion that the herein disclosed cream supports healthy colonization of the skin microbiome.

With Acemannan the “growth of S. epidermidis” value was “Comparable levels of bacterial growth” and the “growth of S. epidermidis” value (listed as acemannan) was “did not affect the growth of S. epidermidis”.
